Laboratory results: patent US12509434B2, “Optically resolved Trolox intermediate and method for producing same” (PTC THERAPEUTICS, INC., priority 2020, dated 2025)

Legend:
[1] = Solubility of the crystals in ethyl acetate solvent (reslurry, content of supernatant solution); format: physicochemical
Description: Solubility of RS-Trolox⋅R-PEA, R-Trolox⋅R-PEA, and S-Trolox⋅R-PEA to Ethyl Acetate Solvent
Each crystal was reslurried by adding ethyl acetate. The solubility was calculated from analyzing the content of supernatant solution of each reaction solution at each temperature.

[2] = Solubility of the crystals in amide-based solvents NMP and DMA (reslurry, content of supernatant solution); format: physicochemical; details: 20 °C
Description: Solubility of R-Trolox⋅R-PEA, S-Trolox⋅R-PEA, and S-Trolox to NMP and DMA
Each crystal was reslurried by adding an amide-based solvent (NMP, DMA). The solubility was calculated from analyzing the content of supernatant solution of each reaction solution at each temperature.

Compound	Solubility to ethyl acetate solvent ([1]; 0 °C) [%]	Solubility to ethyl acetate solvent ([1]; 15 °C) [%]	Solubility to ethyl acetate solvent ([1]; 30 °C) [%]	Solubility to ethyl acetate solvent ([1]; 45 °C) [%]	Solubility to ethyl acetate solvent ([1]; 60 °C) [%]	Solubility to ethyl acetate solvent ([1]; 75 °C) [%]	Solubility [%] DMA [2] [%]	Solubility [%] NMP [2] [%]
C[C@@H](N)c1ccccc1.Cc1c(C)c2c(c(C)c1O)CCC(C)(C(=O)O)O2 (racemic) [rac-Trolox]	0.02	0.02	0.07	0.38	1.08	2.82	–	–
Cc1c(C)c2c(c(C)c1O)CC[C@](C)(C(=O)O)O2 [R-Trolox]	0.07	0.09	0.10	0.40	0.78	0.83	0.4	0.5
Cc1c(C)c2c(c(C)c1O)CC[C@@](C)(C(=O)O)O2 [S-Trolox (Free), (S)-6-hydroxy-2,5,7,8-tetramethylchroman-2-carboxylic acid]	–	–	–	–	–	–	≥10	≥10
C[C@@H](N)c1ccccc1.Cc1c(C)c2c(c(C)c1O)CC[C@@](C)(C(=O)O)O2 [S-Trolox]	2.6	9.9	14.2	–	–	–	≥10	≥10
